Measured values taken from patent US12599648B2, “Pharmaceutical composition comprising a combination of a guanylate cyclase C (GUCY2C) agonist and a short-chain fatty acid or prodrug thereof” (priority 2020, dated 2026).
Bridge positions count the residues as written; N and C are the ends. Peptide text beside a SMILES is read from it.

How the values were obtained:
[1] = tested on: colonic tumors after AOM/DSS treatment; details: diet supplemented with tributyrin; Donohoe et al.; cited from earlier work
[2] = cited from earlier work
[3] = in vivo; cited from earlier work
[4] = Caecum and colon weight and diarrhea observation in the AOM/DSS mouse trial; assay type: in vivo, wild type mice (BALB/c)
From the text: Thirty wild type mice (BALB/c) were maintained in individually ventilated cages (specific pathogen-free conditions) and divided in four age- and gender-matching groups at the age of 4 weeks. The schematic study set up of the mouse trial using AOM/DSS-based CRC mouse model is represented in FIG. 1.
Accordingly, group A received a semi-synthetic control diet (Hoevenaars F P M, van Schothorst E M, Horakova O, Voigt A, Rossmeisl M, Pico C, Caimari A, Kopecky J, Klaus S, Keijer J. BIOCLAIMS standard diet (BIOsd): a reference diet for nutritional physiology. Genes Nutr. 2012; 7:399-404), group B received a semi-synthetic diet with fiber-supplementation (containing about 46,2 g resistant starch type 2 per 1 kg diet), group C received a semi-synthetic control diet with linaclotide supplementation in drinking water (0.069 μg/mL; replaced every second day; dosage of linaclotide was calculated based on a previous study that applied 0.207 μg/day/mouse via oral gavage (Sharman S K, Islam B N, Hou Y, Singh N, Berger F G, Sridhar S, Yoo W, Browning D D. Cyclic-GMP-Elevating Agents Suppress Polyposis in ApcMin Mice by Targeting the Preneoplastic Epithelium. Cancer Prev Res (Phila Pa). 2018; 11:81-92.) and an assumed daily intake of 3 mL H2O per mouse; this mimics a daily intake of about 0.6 mg in a 70 kg healthy human, which is close to amounts used in previous clinical studies (Weinberg D S, Lin J E, Foster N R, Della'Zanna G, Umar A, Seisler D, Kraft W K, Kastenberg D M, Katz L C, Limburg P J, et al. Bioactivity of Oral Linaclotide in Human Colorectum for Cancer Chemoprevention. Cancer Prev Res Phila Pa. 2017; 10:345-54.)), group D received a combination of fiber-supplemented diet (containing about 46,2 g resistant starch type 2 per 1 kg diet), and linaclotide (0.069 μg/mL).
FIGS. 4 a) to d) represent graphs on the effect of butyrate acting as osmotic antagonist of linaclotide or GUCY2C signaling limiting the flow of H2O to the gut lumen. […] Single dots represent single mice; statistical analysis using One-way ANOVA with Kruskal-Wallis post-test, *=p<0.05. **=p<0.01.

SMILES | tumor levels in the colon after AOM/DSS treatment [1] | solubility in water [2] | people taking the drug who have diarrhea [3] | caecum weight (indication of amounts of H2O in the gut lumen) ([4]; FIG. 4a) | colon weight (indication of amounts of H2O in the gut lumen) ([4]; FIG. 4b) | side effect diarrhea ([4]; at the administered linaclotide concentration (0.069 μg/mL drinking water))
CCCC(=O)OCC(COC(=O)CCC)OC(=O)CCC [Tributyrin, 1,3-di(butanoyloxy)propan-2-yl butanoate] | lowest tumor levels | only poorly soluble |  |  |  | 
C[C@@H]1NC(=O)[C@@H]2CCCN2C(=O)[C@H](CC(N)=O)NC(=O)[C@@H]2CSSC[C@H](N)C(=O)N[C@H]3CSSC[C@H](NC1=O)C(=O)N[C@@H]([C@@H](C)O)C(=O)NCC(=O)N[C@H](C(=O)N[C@@H](Cc1ccc(O)cc1)C(=O)O)CSSC[C@H](NC(=O)[C@H](Cc1ccc(O)cc1)NC(=O)[C@H](CCC(=O)O)NC3=O)C(=O)N2 [linaclotide, Linaclotide] (H-CCEYCCNPACTGCY-OH; disulfide 1-6, 2-10, 5-13) |  |  | More than 10% | higher | higher | did not observe
